The values that follow come from paper PMC10916400, “Effect of the aggregated protein dye YAT2150 on Leishmania parasite viability” (Antimicrobial Agents and Chemotherapy, 2024).

The nature of one series: in vitro. Type of series: cell-based. The following applies: human umbilical vein endothelial cells, 48 h. How it is done: Human umbilical vein endothelial cells were maintained in M-199 supplemented with 10% fetal bovine serum (FBS) and 1% penicillin-streptomycin at 37°C, 5% CO2, and seeded in 96-well plates at a density of 50,000 cells/mL. After allowing cell adherence for 24 h, the medium was removed, and drugs or nanoformulations were added in M-199 supplemented with 1% penicillin-streptomycin. Plates were incubated for 48 h, and then, the medium in each well was replaced by 100 µL of M-199 containing penicillin-streptomycin and 0.00125% resazurin sodium salt (Sigma-Aldrich Corporation). Plates were incubated for 4 h, and resorufin fluorescence emission was measured (λex/em: 535/590 nm) in a Tecan Infinite 200 PRO equipment (Tecan Trading AG).

Series [1] in a line: Solubility screen assay (nephelometry). The following applies: PBS with 1% DMSO; read-out: Aqueous solubility. The format is physicochemical. The protocol: The stock solutions (10^‒2 M) of the assayed compounds were diluted to decreased molarity, from 300 μM to 0.1 µM, in a 384-well transparent plate (Greiner Bio-One, Madrid, Spain) with DMSO:PBS (1:99 vol/vol). After 2 h of incubation at 37°C, the plate was read in a NEPHELOstar Plus nephelometer (BMG LABTECH GmbH, Ortenberg, Germany) at 635 nm. The results were adjusted to a segmented regression to obtain the maximum concentration at which the compounds were soluble.

The nature of series [2]: Human hepatocyte stability assay. The format is in vitro ADME. The following applies: 37°C. The protocol:
A vial of human hepatocytes (100 donor pool HCP100.H15/Lot: 2010012; XenoTech, Kansas City, KS, US) was removed from the liquid nitrogen tank and immersed into a water bath. When only a small ice crystal remained, the cell suspension was transferred to a tube with the preheated suspension medium (OptiThaw hepatocyte medium, K8000; XenoTech). After a brief centrifugation at 100 × g for 5 min, hepatocytes were gently resuspended with incubation medium (OptiIncubate hepatocyte medium, K8400; XenoTech) and counted, and viability was determined using trypan blue staining. One-micromolar compounds were incubated at 37°C and 5% CO2 in the presence of 0.5 × 10^6 hepatocytes in a 500-µL incubation volume. Aliquots were taken, and reactions were terminated with ACN at each of the six sampling time points (0, 15, 30, 60, 90, and 120 min). The samples were centrifuged, and the remaining compound was determined by UPLC-MS/MS analysis as above. Intrinsic clearance was calculated from the logarithm of the remaining compound at each of the times evaluated.

In a further series the test system is L. major promastigotes. The series is described as follows: Luciferase assay for free intracellular ATP levels. The format is cell-based, Leishmania major. The following applies: luciferase-expressing L. major promastigotes, DMNPE-luciferin. How it is done: The process described in reference ([62]) was followed. Briefly, L. major promastigotes (Friendlin strain) were transfected with the pLEXSY-hyg2.1 expression vector (Jena Bioscience, Jena, Germany) containing a cytoplasmic form of firefly luciferase mutated at its C-terminal tripeptide to prevent its import into the glycosome. Promastigotes were grown in Roswell Park Memorial Institute 1640 medium (RPMI) supplemented with 10% FBS, 2 mM L-glutamine, 1,000 U/mL penicillin/streptomycin (Gibco, Billings, MT, US), and 100 µg/mL hygromycin (InvivoGen, San Diego, CA, US) at 26°C. To assess variation in the intracellular concentration of free ATP, parasites were harvested at the late exponential phase of growth. After two washes with Hanks balanced buffer, parasites were resuspended in the same buffer supplemented with 10 mM D-glucose at 2.2 × 10^7 parasites/mL. After the addition of DMNPE-caged D-luciferin (GoldBio, St. Louis, MO, US) at 50 µM final concentration, the parasite suspension was aliquoted (90 µL/well) into a black 96-microwell plate (Nunc A/S, Roskilde, Denmark), and luminescence readout was monitored in a POLARstar Galaxy microplate reader (BMG LABTECH GmbH) with a luminescence setup. Once the luminescence reached a plateau, 10 µL of a YAT2150 solution at 10× fold its final concentration was added (t0) and the luminescence value at this point was considered as 100%. […]

In series [3] the test system is L. infantum promastigote cultures. The series can be described thus: Protein aggregation assay in L. infantum cultures (ThT fluorescence). Type of series: cell-based, Leishmania infantum. The following applies: 0.15 and 0.3 µM YAT2150, 90 min and 4 h, promastigote culture extracts. How it is done:
Ten milliliters of L. infantum promastigote cultures in the logarithmic growth phase at a concentration of 10^7 cells/mL in T-25 flasks (SPL Life Sciences, Pochon, Kyonggi-do, South Korea) was either treated with 0.15 µM or 0.3 µM YAT2150 or left untreated. After 90 min and 4 h of incubation, 1 mL of each culture was washed (3×, 1 mL PBS, 600 × g, 3 min) and the parasite-containing pellets were taken up in 100 µL of 4.5 mg/mL NaCl supplemented with 1× cOmplete protease inhibitor cocktail (Roche, Basel, Switzerland) and incubated overnight at 4°C with gentle stirring. After this time, samples were spun down (2,000 × g, 10 s) and the protein in each supernatant was quantified with the Pierce BCA protein assay kit (Thermo Electron Corporation, Waltham, MA, US). In a 96-well flat bottom black plate (Greiner Bio-One), 2 µg of protein from each supernatant was diluted in a final volume of 100 µL PBS in duplicates. Protein aggregation was measured by the addition of 25 µM ThT to each well, and after a 15-min incubation with gentle stirring, ThT fluorescence emission intensity was measured as detailed above.

Structures are written as SMILES.

The compound `CCN(CC)c1ccc(/C=C/c2cc[n+](CCCCCCCCCC[n+]3ccc(/C=C/c4ccc(N(CC)CC)cc4)c(C)c3)cc2C)cc1` [YAT2150] gave a half-maximal cytotoxic concentration (CC50) in the series “in vitro” of 3.4 ± 0.5 µM. In addition, the solubility at 2 h in series [1] was 8.5 µM. The hepatocyte CLint at 1 µM in series [2] (hepatocytes (cryopreserved, 100 donor pool)) is 2.5 µL/min/1e6 cells. The “t1/2, hepatocyte stability” value in series [2] (human hepatocytes) is 4.622 h. Also, in series [2] (human, hepatocytes (cryopreserved, 100 donor pool), after 2 h), the amount remaining at 2 h, 1 µM is 70%. In addition, the half-life at 1 µM in series [2] (human, hepatocytes (cryopreserved, 100 donor pool), read-out: t1/2, hepatocyte stability) came out at 4.62 h. The “concentration beyond which a concentration-dependent reduction in luminescence (ATP) was observed” value in the series on L. major promastigotes is greater than 2 µM. Moreover, the “overall aggregation of the parasite's proteins (ThT analysis)” value in series [3] is on record as “reduced”.
